From PubChem BioAssay (NCI)
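Following 48 hours of exposure in 96-well plates, responses at five concentrations were used to interpolate endpoints linearly. At the GI50, growth is halved. TGI marks complete inhibition of growth.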

How the values were obtained:
Experiment in all cases: NCI tumour cell line growth inhibition, 48 h
ACHN renal = tested on: ACHN renal
K-562 leukemia = tested on: K-562 leukemia
NCI/ADR-RES ovarian = tested on: NCI/ADR-RES ovarian
SNB-75 CNS = tested on: SNB-75 CNS
M14 melanoma = tested on: M14 melanoma
CCRF-CEM leukemia = tested on: CCRF-CEM leukemia
SF-268 CNS = tested on: SF-268 CNS
HCC-2998 colon = tested on: HCC-2998 colon
KM12 colon = tested on: KM12 colon
HCT-15 colon = tested on: HCT-15 colon
SF-295 CNS = tested on: SF-295 CNS
UACC-257 melanoma = tested on: UACC-257 melanoma
NCI-H23 lung = tested on: NCI-H23 lung
OVCAR-3 ovarian = tested on: OVCAR-3 ovarian
OVCAR-8 ovarian = tested on: OVCAR-8 ovarian
RPMI-8226 leukemia = tested on: RPMI-8226 leukemia
COLO 205 colon = tested on: COLO 205 colon
HCT-116 colon = tested on: HCT-116 colon
LOX IMVI melanoma = tested on: LOX IMVI melanoma
HL-60(TB) leukemia = tested on: HL-60(TB) leukemia
A549 NSCLC = tested on: A549 NSCLC
MDA-MB-231 breast = tested on: MDA-MB-231 breast
MALME-3M melanoma = tested on: MALME-3M melanoma
SN12C renal = tested on: SN12C renal
MDA-MB-435 = tested on: MDA-MB-435
OVCAR-4 ovarian = tested on: OVCAR-4 ovarian
PC-3 prostate = tested on: PC-3 prostate
HOP-62 NSCLC = tested on: HOP-62 NSCLC
MCF7 breast = tested on: MCF7 breast
CAKI-1 renal = tested on: CAKI-1 renal
DU-145 prostate = tested on: DU-145 prostate
SK-MEL-2 melanoma = tested on: SK-MEL-2 melanoma
SK-MEL-5 melanoma = tested on: SK-MEL-5 melanoma
U251 CNS = tested on: U251 CNS
NCI-H460 lung = tested on: NCI-H460 lung
HT29 colon = tested on: HT29 colon
SK-MEL-28 melanoma = tested on: SK-MEL-28 melanoma
OVCAR-5 ovarian = tested on: OVCAR-5 ovarian
RXF 393 renal = tested on: RXF 393 renal
MOLT-4 leukemia = tested on: MOLT-4 leukemia
786-0 renal = tested on: 786-0 renal
EKVX NSCLC = tested on: EKVX NSCLC
UO-31 renal = tested on: UO-31 renal
BT-549 breast = tested on: BT-549 breast
SNB-19 CNS = tested on: SNB-19 CNS
SR leukemia = tested on: SR leukemia
TK-10 renal = tested on: TK-10 renal
NCI-H522 lung = tested on: NCI-H522 lung
SW-620 colon = tested on: SW-620 colon
SK-OV-3 ovarian = tested on: SK-OV-3 ovarian
HS 578T breast = tested on: HS 578T breast
NCI-H226 lung = tested on: NCI-H226 lung
HOP-92 NSCLC = tested on: HOP-92 NSCLC
IGROV1 ovarian = tested on: IGROV1 ovarian
SF-539 CNS = tested on: SF-539 CNS

SMILES: O=c1[nH]nc(NCCc2ccccc2)c2nnn(Cc3ccccc3)c12
- TGI (ACHN renal): > 100000 nM
- TGI (K-562 leukemia): > 100000 nM
- TGI (NCI/ADR-RES ovarian): > 100000 nM
- TGI (SNB-75 CNS): > 100000 nM
- TGI (M14 melanoma): > 100000 nM
- TGI (CCRF-CEM leukemia): > 100000 nM
- TGI (SF-268 CNS): > 100000 nM
- TGI (HCC-2998 colon): > 100000 nM
- TGI (KM12 colon): > 100000 nM
- TGI (HCT-15 colon): > 100000 nM
- TGI (SF-295 CNS): > 100000 nM
- TGI (UACC-257 melanoma): > 100000 nM
- TGI (NCI-H23 lung): > 100000 nM
- TGI (OVCAR-3 ovarian): > 100000 nM
- TGI (OVCAR-8 ovarian): > 100000 nM
- TGI (RPMI-8226 leukemia): > 100000 nM
- TGI (COLO 205 colon): > 100000 nM
- TGI (HCT-116 colon): > 100000 nM
- TGI (LOX IMVI melanoma): > 100000 nM
- TGI (HL-60(TB) leukemia): > 100000 nM
- TGI (A549 NSCLC): > 100000 nM
- TGI (MDA-MB-231 breast): > 100000 nM
- TGI (MALME-3M melanoma): > 100000 nM
- TGI (SN12C renal): > 100000 nM
- TGI (MDA-MB-435): > 100000 nM
- TGI (OVCAR-4 ovarian): > 100000 nM
- TGI (PC-3 prostate): > 100000 nM
- TGI (HOP-62 NSCLC): > 100000 nM
- TGI (MCF7 breast): > 100000 nM
- TGI (CAKI-1 renal): > 100000 nM
- TGI (DU-145 prostate): > 100000 nM
- TGI (SK-MEL-2 melanoma): > 100000 nM
- TGI (SK-MEL-5 melanoma): > 100000 nM
- TGI (U251 CNS): > 100000 nM
- TGI (NCI-H460 lung): > 100000 nM
- TGI (HT29 colon): > 100000 nM
- TGI (SK-MEL-28 melanoma): > 100000 nM
- TGI (OVCAR-5 ovarian): > 100000 nM
- TGI (RXF 393 renal): > 100000 nM
- TGI (MOLT-4 leukemia): > 100000 nM
- TGI (786-0 renal): > 100000 nM
- TGI (EKVX NSCLC): > 100000 nM
- TGI (UO-31 renal): > 100000 nM
- TGI (BT-549 breast): > 100000 nM
- TGI (SNB-19 CNS): > 100000 nM
- TGI (SR leukemia): > 100000 nM
- TGI (TK-10 renal): > 100000 nM

SMILES: CCCCCCCCCOc1c(OC)cc(C2CC(=O)Nc3c2c(C)nn3-c2nc3ccccc3[nH]2)cc1OC (centres undefined)
- GI50 (ACHN renal): 1130 nM
- TGI (ACHN renal): 2790 nM
- GI50 (K-562 leukemia): 1810 nM
- TGI (K-562 leukemia): > 50000 nM
- GI50 (NCI/ADR-RES ovarian): 1310 nM
- TGI (NCI/ADR-RES ovarian): 3740 nM
- GI50 (SNB-75 CNS): 670 nM
- TGI (SNB-75 CNS): 1550 nM
- GI50 (CCRF-CEM leukemia): 1720 nM
- TGI (CCRF-CEM leukemia): > 50000 nM
- GI50 (NCI-H522 lung): 1010 nM
- TGI (NCI-H522 lung): 2400 nM
- GI50 (SF-268 CNS): 1040 nM
- TGI (SF-268 CNS): 2570 nM
- GI50 (HCC-2998 colon): 1620 nM
- TGI (HCC-2998 colon): > 50000 nM
- GI50 (KM12 colon): 1170 nM
- TGI (KM12 colon): 3080 nM
- GI50 (HCT-15 colon): 1050 nM
- TGI (HCT-15 colon): 2460 nM
- GI50 (SF-295 CNS): 816 nM
- TGI (SF-295 CNS): 1740 nM
- GI50 (UACC-257 melanoma): 1470 nM
- TGI (UACC-257 melanoma): > 50000 nM
- GI50 (NCI-H23 lung): 904 nM
- TGI (NCI-H23 lung): 1830 nM
- GI50 (OVCAR-3 ovarian): 1180 nM
- TGI (OVCAR-3 ovarian): 2890 nM
- GI50 (OVCAR-8 ovarian): 1710 nM
- TGI (OVCAR-8 ovarian): 7280 nM
- GI50 (RPMI-8226 leukemia): 1460 nM
- TGI (RPMI-8226 leukemia): 4290 nM
- GI50 (COLO 205 colon): 1730 nM
- TGI (COLO 205 colon): > 50000 nM
- GI50 (HCT-116 colon): 1780 nM
- TGI (HCT-116 colon): > 50000 nM
- GI50 (LOX IMVI melanoma): 913 nM
- TGI (LOX IMVI melanoma): 1670 nM
- GI50 (HL-60(TB) leukemia): 1580 nM
- TGI (HL-60(TB) leukemia): 4450 nM
- GI50 (SW-620 colon): 1000 nM
- TGI (SW-620 colon): 2170 nM
- GI50 (A549 NSCLC): 1080 nM
- TGI (A549 NSCLC): 2350 nM
- GI50 (SK-OV-3 ovarian): 1060 nM
- TGI (SK-OV-3 ovarian): 2090 nM
- GI50 (MDA-MB-231 breast): 975 nM
- TGI (MDA-MB-231 breast): 1870 nM
- GI50 (MALME-3M melanoma): 914 nM
- TGI (MALME-3M melanoma): 1920 nM
- GI50 (HS 578T breast): 622 nM
- TGI (HS 578T breast): 1970 nM
- GI50 (MDA-MB-435): 982 nM
- TGI (MDA-MB-435): 1990 nM
- GI50 (NCI-H226 lung): 939 nM
- TGI (NCI-H226 lung): 1840 nM
- GI50 (HOP-62 NSCLC): 974 nM
- TGI (HOP-62 NSCLC): 2110 nM
- GI50 (MCF7 breast): 1590 nM
- TGI (MCF7 breast): > 50000 nM
- GI50 (HOP-92 NSCLC): 955 nM
- TGI (HOP-92 NSCLC): 2460 nM
- GI50 (CAKI-1 renal): 917 nM
- TGI (CAKI-1 renal): 1810 nM
- GI50 (DU-145 prostate): 1790 nM
- TGI (DU-145 prostate): > 50000 nM
- GI50 (SK-MEL-2 melanoma): 1410 nM
- TGI (SK-MEL-2 melanoma): 4310 nM
- GI50 (SK-MEL-5 melanoma): 871 nM
- TGI (SK-MEL-5 melanoma): 1560 nM
- GI50 (NCI-H460 lung): 928 nM
- TGI (NCI-H460 lung): 1800 nM
- GI50 (IGROV1 ovarian): 890 nM
- TGI (IGROV1 ovarian): 1770 nM
- GI50 (HT29 colon): 1640 nM
- TGI (HT29 colon): > 50000 nM
- GI50 (SK-MEL-28 melanoma): 897 nM
- TGI (SK-MEL-28 melanoma): 1810 nM
- GI50 (OVCAR-5 ovarian): 881 nM
- TGI (OVCAR-5 ovarian): 1860 nM
- GI50 (MOLT-4 leukemia): 1340 nM
- TGI (MOLT-4 leukemia): 3250 nM
- GI50 (SF-539 CNS): 851 nM
- TGI (SF-539 CNS): 1650 nM
- GI50 (EKVX NSCLC): 981 nM
- TGI (EKVX NSCLC): 2320 nM
- GI50 (UO-31 renal): 679 nM
- TGI (UO-31 renal): 1320 nM
- GI50 (SR leukemia): 1570 nM
- TGI (SR leukemia): 6510 nM
- GI50 (TK-10 renal): 1270 nM
- TGI (TK-10 renal): 3830 nM
